Laboratory results from publication PMC5983544, “Muscarinic M5 receptors modulate ethanol seeking in rats” (Neuropsychopharmacology, 2018).

Assays:
[1] = target: T1, rat M5 mAChR (Rattus norvegicus, UniProt P08911); experiment: [3H]NMS equilibrium binding in whole CHO-rM5 cells (interaction with ACh); details: whole-cell [3H]NMS binding, read-out: binding affinity pKB (converted)
T1 sequence (P08911 1-531): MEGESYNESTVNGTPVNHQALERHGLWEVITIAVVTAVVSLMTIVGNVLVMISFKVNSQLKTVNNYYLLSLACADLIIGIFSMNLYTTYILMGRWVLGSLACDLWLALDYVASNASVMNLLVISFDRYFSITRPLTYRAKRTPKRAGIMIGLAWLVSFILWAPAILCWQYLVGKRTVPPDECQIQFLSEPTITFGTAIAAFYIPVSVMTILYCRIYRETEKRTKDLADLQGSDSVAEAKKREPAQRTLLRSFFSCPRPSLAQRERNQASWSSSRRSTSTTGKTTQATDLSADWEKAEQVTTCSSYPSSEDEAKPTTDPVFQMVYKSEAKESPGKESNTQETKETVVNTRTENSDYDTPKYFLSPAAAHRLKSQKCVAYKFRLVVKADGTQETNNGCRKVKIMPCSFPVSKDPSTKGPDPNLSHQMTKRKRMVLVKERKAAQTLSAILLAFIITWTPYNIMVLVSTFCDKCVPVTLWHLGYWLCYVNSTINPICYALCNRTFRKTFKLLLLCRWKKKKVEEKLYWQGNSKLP
Protocol: (§1) Rat mAChR subtypes (rM1–rM5; Origene) and human cannabinoid 1 receptor (hCB1; ref. [24]) constructs were isogenically integrated into FlpIn CHO cells (Invitrogen) and cells were selected in the presence of […] hygromycin B at 37 °C, 5% CO2, as previously described for the human M1 mAChR [25]. All cells were sub-cultured and seeded as previously described for the CHO-hM5 cells.
(§2) [^3H]NMS equilibrium binding assays in CHO-rM1 to CHO-rM5 cells were performed as previously described for CHO-hM5 cells. For [^35S]GTPγS binding, CHO-rM2 and CHO-rM4 cell membranes were prepared as described in Supplementary information. Membrane [^35S]GTPγS binding was performed as described in ref [26]., except GDP and [^35S]GTPγS concentrations were 1 μM and 0.3 nM, respectively. [^3H](+)-pentazocine binding was performed as described in ref. [27].

[2] = target: T2, rat M2 mAChR (Rattus norvegicus, UniProt P10980); experiment: [3H]NMS equilibrium binding in whole CHO-rM2 cells; details: rM2, [3H]NMS binding
T2 construct: host or cells: FlpIn CHO cells (Invitrogen)
T2 sequence (P10980 1-466): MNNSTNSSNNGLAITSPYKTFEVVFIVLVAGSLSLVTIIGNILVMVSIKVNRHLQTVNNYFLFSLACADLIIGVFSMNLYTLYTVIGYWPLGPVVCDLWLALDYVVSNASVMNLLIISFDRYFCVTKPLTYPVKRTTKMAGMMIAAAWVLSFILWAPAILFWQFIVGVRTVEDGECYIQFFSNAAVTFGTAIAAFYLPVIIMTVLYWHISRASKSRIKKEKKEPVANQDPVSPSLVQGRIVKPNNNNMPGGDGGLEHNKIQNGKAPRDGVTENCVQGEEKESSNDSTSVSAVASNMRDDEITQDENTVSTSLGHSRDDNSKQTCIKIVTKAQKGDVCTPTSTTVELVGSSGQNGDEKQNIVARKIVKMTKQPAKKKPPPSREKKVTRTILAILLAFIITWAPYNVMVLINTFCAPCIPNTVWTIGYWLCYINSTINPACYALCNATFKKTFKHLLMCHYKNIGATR
Protocol: as §1, §2

[3] = target: T3, rat M4 mAChR (Rattus norvegicus, UniProt P08485); experiment: [3H]NMS equilibrium binding in whole CHO-rM4 cells; details: rM4, [3H]NMS binding
T3 construct: host or cells: FlpIn CHO cells (Invitrogen)
T3 sequence (P08485 1-478): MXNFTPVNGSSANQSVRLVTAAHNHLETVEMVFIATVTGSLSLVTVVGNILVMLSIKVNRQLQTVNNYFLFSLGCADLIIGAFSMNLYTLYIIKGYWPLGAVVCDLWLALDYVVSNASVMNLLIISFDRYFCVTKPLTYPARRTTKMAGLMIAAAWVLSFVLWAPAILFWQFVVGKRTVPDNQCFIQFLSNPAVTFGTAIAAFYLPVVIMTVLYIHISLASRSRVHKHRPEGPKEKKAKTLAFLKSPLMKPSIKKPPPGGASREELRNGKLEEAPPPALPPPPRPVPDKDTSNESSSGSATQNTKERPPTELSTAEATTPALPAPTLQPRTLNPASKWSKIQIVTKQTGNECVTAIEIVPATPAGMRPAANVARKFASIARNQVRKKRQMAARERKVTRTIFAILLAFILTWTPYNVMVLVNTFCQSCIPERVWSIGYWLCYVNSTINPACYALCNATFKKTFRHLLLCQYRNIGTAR
Protocol: as §1, §2

[4] = target: T1, rat M5 mAChR; experiment: ACh-stimulated IP accumulation (IP-One) in CHO-rM5 cells; format: cell-based
Protocol: (§3) The IP-One assay kit (Cisbio) was used for the direct quantitative measurement of inositol phosphate (IP) accumulation in CHO-rM1, CHO-rM3 or CHO-rM5 cells, as described previously. The CHO-hCB1 pERK1/2 assays were performed as described in ref [24].

[5] = target: T4, rat M3 mAChR (Rattus norvegicus, UniProt P08483); experiment: ACh-stimulated IP accumulation (IP-One) in CHO-rM3 cells; format: cell-based; details: Fig. 2c
T4 construct: host or cells: FlpIn CHO cells (Invitrogen)
Protocol: as §3

[6] = target: T3, rat M4 mAChR; experiment: ACh-stimulated [35S]GTPγS binding in CHO-rM4 cell membranes; format: biochemical; details: rM4, [35S]GTPγS binding
Protocol: as §2

[7] = Rat pharmacokinetics (intraperitoneal or oral dosing); format: in vivo
Protocol: ML375 pharmacokinetics after either intraperitoneal or oral dosing of rats was determined as described in Supplementary information.

[8] = test system: ethanol-preferring (iP) rats; experiment: Ethanol self-administration after bilateral microinjection into dorsolateral (DL) striatum; format: in vivo, rat; details: intra-DL striatum, 105 pmol/hemisphere
Source text: (§4) Male iP rats (n = 14) were trained to self-administer 10% (v/v) ethanol via lever presses under FR3 operant conditions for approximately 12 weeks, in the presence of a 1-s light conditioned stimulus (CS+) occurring when the ethanol solution was delivered and an olfactory cue (S+ cue; one drop of vanilla essence, placed directly below the ethanol-paired (active) lever), as previously described, followed by surgery and testing. […] Rats were then given 7 days of ethanol self-administration before receiving the alternate treatment in a counterbalanced manner. For full details refer to Supplementary material.
(§5) Microinjections were performed as previously described; for full details see Supplementary material.

[9] = test system: ethanol-preferring (iP) rats; experiment: Ethanol self-administration after bilateral microinjection into dorsomedial (DM) striatum; format: in vivo, rat; details: intra-DM striatum, 105 pmol/hemisphere
Source text: as §4, §5
There was a main effect of lever (F(1, 15) = 59.4, P < 0.0001) but no effect of treatment (F(1, 15) = 0.22, P = 0.65) (Fig. 5b).

[10] = single 30 mg/kg oral dose, plasma

T4 sequence (P08483 whole entry): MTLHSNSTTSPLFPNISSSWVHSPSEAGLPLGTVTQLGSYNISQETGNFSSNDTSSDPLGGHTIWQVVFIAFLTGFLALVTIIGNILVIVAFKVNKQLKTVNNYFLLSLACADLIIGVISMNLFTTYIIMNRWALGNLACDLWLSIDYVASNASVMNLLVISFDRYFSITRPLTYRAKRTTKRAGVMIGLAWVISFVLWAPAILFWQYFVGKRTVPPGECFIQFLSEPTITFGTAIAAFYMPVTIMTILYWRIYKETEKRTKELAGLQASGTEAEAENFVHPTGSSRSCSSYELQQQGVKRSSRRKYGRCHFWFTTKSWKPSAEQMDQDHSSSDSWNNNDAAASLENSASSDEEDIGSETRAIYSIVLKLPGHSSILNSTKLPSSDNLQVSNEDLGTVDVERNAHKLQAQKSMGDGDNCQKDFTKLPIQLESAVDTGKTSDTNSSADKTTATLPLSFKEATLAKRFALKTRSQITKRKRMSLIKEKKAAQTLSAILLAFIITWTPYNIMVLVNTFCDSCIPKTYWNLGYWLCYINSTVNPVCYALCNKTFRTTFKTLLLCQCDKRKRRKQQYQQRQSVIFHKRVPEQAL

Kb [1]: 355 nM
effect on ACh affinity [2]: no significant effects
effect on ACh affinity [3]: no significant effects
functional cooperativity between ML375 and ACh ([4]; rM5): high negative cooperativity
Kb ([4]; read-out: functional affinity pKB (converted)): 155 nM
activity on ACh function at rM3 [5]: weak activity
effect on ACh potency [6]: no significant effects
clearance ([7]; 20 mg/kg i.p., 24 h profile): low clearance
terminal half-life ([7]; 20 mg/kg i.p., 24 h profile): long terminal half-life
Kp at 24 h ([7]; brain and plasma, ip, 20 mg/kg i.p., 24 h timepoint, read-out: brain-to-plasma ratio): 3 ± 0.7
Cmax [7, 10]: 4.7 ± 0.7 µM
Tmax [7, 10]: 7 h
Compound: O=C(c1ccc(F)c(F)c1)N1CCN2C(=O)c3ccccc3[C@@]12c1ccc(Cl)cc1 [ML375, (S)-9b-(4-chlorophenyl)-1-(3,4-difluorobenzoyl)-2,3-dihydro-1H-imidazo[2,1-a]isoi ndol-5(9bH)-one]
responding for ethanol vs vehicle ([8]; P = 0.011): significantly reduced responding for ethanol
responding for water vs vehicle ([8]; P > 0.99): no difference
ethanol responding vs vehicle [9]: did not affect ethanol responding
